Assay results as given in patent US9895369B2, “Stable and soluble formulations of receptor tyrosine kinase inhibitors, and methods of preparation thereof” (ForSight Vision4, Inc., priority 2014, dated 2018).

How the values were obtained:
[1] = pH comparison of pazopanib/CAPTISOL solutions with similar composition; format: physicochemical; details: about 22.4 mg pazopanib salt + about 157 mg CAPTISOL (1.5x molar ratio to drug) in 1 mL water
Source text: From the results of the pH and the chloride content analysis it is concluded that the pharmaceutical ingredient from sample-1 contains 2-HCl per each pazopanib molecule, compared to active from sample-2, which contains only 1 HCl/per drug molecule.

[2] = Precipitation during ambient (room temperature) storage of the formulation; format: physicochemical; details: high drug concentration; crystallized out during storage and during drug release

pH, measured [1] | Stability of high concentration formulations (on shelf and upon dilution) [2] | Compound
3.34 |  | Cc1ccc(Nc2nccc(N(C)c3ccc4c(C)n(C)nc4c3)n2)cc1S(N)(=O)=O [Pazopanib-Sample 2-lyophilized-TFE (1HCl)] [5-[[4-[(2,3-Dimethyl-2H-indazol-6-yl)methylamino]-2-pyrimidinyl]amino]-2-methylbenzolsulfonamide]
3.36 | very unstable | Cc1ccc(Nc2nccc(N(C)c3ccc4c(C)n(C)nc4c3)n2)cc1S(N)(=O)=O [Pazopanib-Sample 2 (1HCl), 5-[[4-[(2,3-Dimethyl-2H-indazol-6-yl)methylamino]-2-pyrimidinyl]amino]-2-methylbenzolsulfonamide]
1.68 |  | Cc1ccc(Nc2nccc(N(C)c3ccc4c(C)n(C)nc4c3)n2)cc1S(N)(=O)=O [Pazopanib-Sample 1, 5-[[4-[(2,3-Dimethyl-2H-indazol-6-yl)methylamino]-2-pyrimidinyl]amino]-2-methylbenzolsulfonamide]
